Reference: paper PMC7144234, “Antiproliferative chromone derivatives induce K562 cell death through endogenous and exogenous pathways” (Journal of Enzyme Inhibition and Medicinal Chemistry, 2020)

Tests used:
PBMC = experiment: MTT assay, peripheral blood mononuclear cells; assay type: cell-based, human; settings: 72 h
Method: (§1) The colorimetric MTT (3-(4,5-dimethylthiazol-2-yl)-2,5-diphenyltetrazolium bromide) assay was used to measure the cell viability of all of the above cell lines following treatment with target hybrids. Exponentially growing cells were added into 96-well plates at a concentration of 2000–4000 cells per well. Following attachment the cells were treated with varying concentrations (64, 16, 4, 1, 0.25, 0.0625 and 0.015625 µM) of target compounds in media and were kept for incubation for 72 h. MTT (20 µL, 5 mg/mL in PBS) was added to each well and the cells were incubated for another 3 h at 37 °C. Then the medium was removed, followed by the addition of 150 µL DMSO for each well. After that, the absorbance (OD) data of each well at 570 nm wavelength were measured by a Microplate Reader (BIO-RAD), and half inhibition rates (IC50) were calculated[59]^,[60].

HCT-116 = experiment: MTT antiproliferative assay, HCT-116; assay type: cell-based, human; settings: 72 h, colorectal carcinoma HCT-116
Method: as §1

K562 = experiment: MTT antiproliferative assay, K562; assay type: cell-based, human; settings: 72 h, chronic myeloid leukaemia K562
Method: as §1

MCF-7 = experiment: MTT antiproliferative assay, MCF-7; assay type: cell-based, human; settings: breast carcinoma MCF-7
Method: as §1

HepG2 = experiment: MTT antiproliferative assay, HepG2; assay type: cell-based, human; settings: 72 h, hepatoma HepG2
Method: as §1

B16 = experiment: MTT antiproliferative assay, B16; assay type: cell-based; settings: 72 h, melanoma B16
Method: as §1

L-02 = experiment: MTT assay, normal hepatic L-02 cell line; assay type: cell-based; settings: human normal hepatic L-02 cell line
Method: as §1

2-((1-(6-Methyl-4-oxo-4H-chromene-3-carboxamido)propan-2-yl)oxy)-3-(phenylsulfonyl)-1,2,5-oxadiazole 2-oxide [14a]
IC50 (PBMC): > 50 µM
IC50 (HCT-116): 29.6 ± 1.48 µM
IC50 (K562): 13.6 ± 0.85 µM
IC50 (MCF-7; 72 h): > 50 µM
IC50 (HepG2): 19.9 ± 1.31 µM
IC50 (B16): 27.9 ± 1.23 µM
IC50 (L-02; 72 h): > 50 µM

4-(2-(4-(3-Carboxy-6-methyl-4-oxo-4H-chromen-2-yl)piperazin-1-yl)ethoxy)-3-(phenlsulfonyl)-1,2,5-oxadiazole 2-oxide [14d]
IC50 (PBMC): > 50 µM
IC50 (HCT-116): 7.87 ± 0.32 µM
IC50 (K562): 2.75 ± 0.17 µM
IC50 (MCF-7; 72 h): 13.8 ± 0.49 µM
IC50 (HepG2): 5.38 ± 0.19 µM
IC50 (B16): 11.7 ± 0.52 µM
IC50 (L-02; 72 h): 28.9 ± 1.43 µM

4-(2-(6-Methoxy-4-oxo-4H-chromene-3-carboxamido)ethoxy)-3-(phenylsulfonyl)-1,2,5-oxadiazole 2-oxide [13a]
IC50 (PBMC): > 50 µM
IC50 (HCT-116): 13.2 ± 0.53 µM
IC50 (K562): 5.89 ± 0.26 µM
IC50 (MCF-7; 72 h): 22.1 ± 1.38 µM
IC50 (HepG2): 10.6 ± 0.72 µM
IC50 (B16): 16.8 ± 0.74 µM
IC50 (L-02; 72 h): > 50 µM

4-(2-((3-Carboxy-6-methoxy-4-oxo-4H-chromen-2-yl)amino)ethoxy)-3-(phenylsulfonyl)-1,2,5-oxadiazole 2-oxide [13b]
IC50 (PBMC): > 50 µM
IC50 (HCT-116): 26.9 ± 1.4 µM
IC50 (K562): 13.6 ± 0.76 µM
IC50 (MCF-7; 72 h): 24.8 ± 1.28 µM
IC50 (HepG2): 22.6 ± 1.39 µM
IC50 (B16): 26.8 ± 1.22 µM
IC50 (L-02; 72 h): > 50 µM

4-(2-((3-Carboxy-6-methyl-4-oxo-4H-chromen-2-yl)amino)ethoxy)-3-(phenylsulfonyl)-1,2,5-oxadiazole 2-oxide [12b]
IC50 (PBMC): > 50 µM
IC50 (HCT-116): 26.9 ± 1.61 µM
IC50 (K562): 12.5 ± 1.03 µM
IC50 (MCF-7; 72 h): 26.6 ± 1.6 µM
IC50 (HepG2): 21.3 ± 1.58 µM
IC50 (B16): 31.4 ± 1.34 µM
IC50 (L-02; 72 h): > 50 µM

4-(3-(6-Methyl-4-oxo-4H-chromene-3-carboxamido)propoxy)-3-(phenylsulfonyl)-1,2,5-oxadiazole 2-oxide [12c]
IC50 (PBMC): > 50 µM
IC50 (HCT-116): 25.4 ± 1.76 µM
IC50 (K562): 12.5 ± 0.77 µM
IC50 (MCF-7; 72 h): > 50 µM
IC50 (HepG2): 21.5 ± 1.23 µM
IC50 (B16): 26.9 ± 1.08 µM
IC50 (L-02; 72 h): > 50 µM

4-(3-((3-Carboxy-6-methoxy-4-oxo-4H-chromen-2-yl)amino)propoxy)-3-(phenylsulfonyl)-1,2,5-oxadiazole 2-oxide [13d]
IC50 (PBMC): > 50 µM
IC50 (HCT-116): > 50 µM
IC50 (K562): > 50 µM
IC50 (MCF-7; 72 h): > 50 µM
IC50 (HepG2): > 50 µM
IC50 (B16): > 50 µM
IC50 (L-02; 72 h): > 50 µM

4-(3-((3-Carboxy-6-methyl-4-oxo-4H-chromen-2-yl)amino)propoxy)-3-(phenylsulfonyl)-1,2,5-oxadiazole 2-oxide [12d]
IC50 (PBMC): > 50 µM
IC50 (HCT-116): 8.64 ± 0.58 µM
IC50 (K562): 4.94 ± 0.25 µM
IC50 (MCF-7; 72 h): 15.9 ± 0.66 µM
IC50 (HepG2): 7.91 ± 0.4 µM
IC50 (B16): 9.96 ± 0.67 µM
IC50 (L-02; 72 h): 33.6 ± 2.95 µM

4-((1-((3-Carboxy-6-methoxy-4-oxo-4H-chromen-2-yl)amino)propan-2-yl)oxy)-3-(phenylsulfonyl)-1,2,5-oxadiazole 2-oxide [15b]
IC50 (PBMC): > 50 µM
IC50 (HCT-116): > 50 µM
IC50 (K562): > 50 µM
IC50 (MCF-7; 72 h): > 50 µM
IC50 (HepG2): > 50 µM
IC50 (B16): > 50 µM
IC50 (L-02; 72 h): > 50 µM

4-((1-((3-Carboxy-6-methyl-4-oxo-4H-chromen-2-yl)amino)propan-2-yl)oxy)-3-(phenylsulfonyl)-1,2,5-oxadiazole 2-oxide [14b]
IC50 (PBMC): > 50 µM
IC50 (HCT-116): > 50 µM
IC50 (K562): > 50 µM
IC50 (MCF-7; 72 h): > 50 µM
IC50 (HepG2): > 50 µM
IC50 (B16): > 50 µM
IC50 (L-02; 72 h): > 50 µM

O=c1[nH]cc(F)c(=O)[nH]1 [5-Fu, fluorouracil, reference compound]
IC50 (PBMC; Homo sapiens, PBMC): > 50 µM
IC50 (HCT-116; Homo sapiens): 6.86 ± 0.37 µM
IC50 (K562; Homo sapiens): 3.94 ± 0.17 µM
IC50 (MCF-7; Homo sapiens, MCF7, 72 h): 26.7 ± 1.92 µM
IC50 (HepG2; Homo sapiens): 32.6 ± 1.98 µM
IC50 (B16): 12.6 ± 1.06 µM
IC50 (L-02; L02, 72 h): > 50 µM

NCCOc1no[n+]([O-])c1S(=O)(=O)c1ccccc1 [5a, 4-(2-aminoethoxy)-3-(phenylsulfonyl)-1,2,5-oxadiazole-2-oxide]
IC50 (PBMC; Homo sapiens, PBMC): > 50 µM
IC50 (HCT-116; Homo sapiens): 29.9 ± 1.47 µM
IC50 (K562; Homo sapiens): 18.9 ± 0.73 µM
IC50 (MCF-7; Homo sapiens, MCF7, 72 h): > 50 µM
IC50 (HepG2; Homo sapiens): 21.8 ± 1.35 µM
IC50 (B16): 27.9 ± 1.23 µM
IC50 (L-02; L02, 72 h): > 50 µM

NCCCOc1no[n+]([O-])c1S(=O)(=O)c1ccccc1 [5b, 4-(3-aminopropoxy)-3-(phenylsulfonyl)-1,2,5-oxadiazole-2-oxide]
IC50 (PBMC; Homo sapiens, PBMC): > 50 µM
IC50 (HCT-116; Homo sapiens): 18.9 ± 1.67 µM
IC50 (K562; Homo sapiens): 20.3 ± 1.88 µM
IC50 (MCF-7; Homo sapiens, MCF7, 72 h): > 50 µM
IC50 (HepG2; Homo sapiens): 17.8 ± 1.43 µM
IC50 (B16): 22.9 ± 1.46 µM
IC50 (L-02; L02, 72 h): > 50 µM

CC(CN)Oc1no[n+]([O-])c1S(=O)(=O)c1ccccc1 (stereo not shown) [5c, 4-((1-aminopropan-2-yl)oxy)-3-(phenylsulfonyl)-1,2,5-oxadiazole-2-oxide]
IC50 (PBMC; Homo sapiens, PBMC): > 50 µM
IC50 (HCT-116; Homo sapiens): > 50 µM
IC50 (K562; Homo sapiens): > 50 µM
IC50 (MCF-7; Homo sapiens, MCF7, 72 h): > 50 µM
IC50 (HepG2; Homo sapiens): > 50 µM
IC50 (B16): > 50 µM
IC50 (L-02; L02, 72 h): > 50 µM

O=S(=O)(c1ccccc1)c1c(OCCN2CCNCC2)no[n+]1[O-] [5d, 3-(phenyl-sulfonyl)-4-(2-(piperazin-1-yl)ethoxy)-1,2,5-oxadiazole-2-oxide]
IC50 (PBMC; Homo sapiens, PBMC): > 50 µM
IC50 (HCT-116; Homo sapiens): > 50 µM
IC50 (K562; Homo sapiens): > 50 µM
IC50 (MCF-7; Homo sapiens, MCF7, 72 h): > 50 µM
IC50 (HepG2; Homo sapiens): > 50 µM
IC50 (B16): > 50 µM
IC50 (L-02; L02, 72 h): > 50 µM

Cc1ccc2occ(C(=O)NCCOc3no[n+]([O-])c3S(=O)(=O)c3ccccc3)c(=O)c2c1 [12a, (2-(6-Methyl-4-oxo-4H-chromene-3-carboxamido)ethoxy)-3-(phenylsulfonyl)-1,2,5-oxadiazole 2-oxide]
IC50 (PBMC; Homo sapiens, PBMC): > 50 µM
IC50 (HCT-116; Homo sapiens): > 50 µM
IC50 (K562; Homo sapiens): > 50 µM
IC50 (MCF-7; Homo sapiens, MCF7, 72 h): > 50 µM
IC50 (HepG2; Homo sapiens): > 50 µM
IC50 (B16): > 50 µM
IC50 (L-02; L02, 72 h): > 50 µM

COc1ccc2occ(C(=O)NCCCOc3no[n+]([O-])c3S(=O)(=O)c3ccccc3)c(=O)c2c1 [13c, 4-(3-(6-Methoxy-4-oxo-4H-chromene-3-carboxamido)propoxy)-3-(phenylsulfonyl)-1,2,5-oxadiazole 2-oxide]
IC50 (PBMC; Homo sapiens, PBMC): > 50 µM
IC50 (HCT-116; Homo sapiens): > 50 µM
IC50 (K562; Homo sapiens): > 50 µM
IC50 (MCF-7; Homo sapiens, MCF7, 72 h): > 50 µM
IC50 (HepG2; Homo sapiens): > 50 µM
IC50 (B16): > 50 µM
IC50 (L-02; L02, 72 h): > 50 µM

Cc1ccc2occ(C(=O)N3CCN(CCOc4no[n+]([O-])c4S(=O)(=O)c4ccccc4)CC3)c(=O)c2c1 [14c, 4-(2-(4-(6-Methyl-4-oxo-4H-chromene-3-carbonyl)piperazin-1-yl)ethoxy)-3-(phenylsulfonyl)-1,2,5-oxadiazole 2-oxide]
IC50 (PBMC; Homo sapiens, PBMC): > 50 µM
IC50 (HCT-116; Homo sapiens): 7.93 ± 0.44 µM
IC50 (K562; Homo sapiens): 2.98 ± 0.14 µM
IC50 (MCF-7; Homo sapiens, MCF7, 72 h): 12.8 ± 1.46 µM
IC50 (HepG2; Homo sapiens): 5.67 ± 0.42 µM
IC50 (B16): 10.6 ± 0.53 µM
IC50 (L-02; L02, 72 h): 41.3 ± 2.58 µM

COc1ccc2occ(C(=O)N3CCN(CCOc4no[n+]([O-])c4S(=O)(=O)c4ccccc4)CC3)c(=O)c2c1 [15c, 4-(2-(4-(6-Methoxy-4-oxo-4H-chromene-3-carbonyl)piperazin-1-yl)ethoxy)-3-(phenylsulfonyl)-1,2,5-oxadiazole 2-oxide]
IC50 (PBMC; Homo sapiens, PBMC): > 50 µM
IC50 (HCT-116; Homo sapiens): 22.4 ± 1.72 µM
IC50 (K562; Homo sapiens): 8.93 ± 0.36 µM
IC50 (MCF-7; Homo sapiens, MCF7, 72 h): 37.6 ± 2.24 µM
IC50 (HepG2; Homo sapiens): 25.6 ± 1.57 µM
IC50 (B16): 23.5 ± 1.61 µM
IC50 (L-02; L02, 72 h): > 50 µM

COc1ccc2oc(N3CCN(CCOc4no[n+]([O-])c4S(=O)(=O)c4ccccc4)CC3)c(C(=O)O)c(=O)c2c1 [15d, 4-(2-(4-(3-Carboxy-6-methoxy-4-oxo-4H-chromen-2-yl)piperazin-1-yl)ethoxy)-3-(phenylsulfonyl)-1,2,5-oxadiazole 2-oxide]
IC50 (PBMC; Homo sapiens, PBMC): > 50 µM
IC50 (HCT-116; Homo sapiens): 12.9 ± 1.02 µM
IC50 (K562; Homo sapiens): 4.07 ± 0.39 µM
IC50 (MCF-7; Homo sapiens, MCF7, 72 h): 16.9 ± 1.29 µM
IC50 (HepG2; Homo sapiens): 9.56 ± 2.37 µM
IC50 (B16): 35 ± 1.25 µM
IC50 (L-02; L02, 72 h): > 50 µM

Cc1ccc2occ(C(=O)O)c(=O)c2c1 [compound 10]
IC50 (PBMC; Homo sapiens, PBMC): > 50 µM
IC50 (HCT-116; Homo sapiens): > 50 µM
IC50 (K562; Homo sapiens): > 50 µM
IC50 (MCF-7; Homo sapiens, MCF7, 72 h): > 50 µM
IC50 (HepG2; Homo sapiens): > 50 µM
IC50 (B16): > 50 µM
IC50 (L-02; L02, 72 h): > 50 µM

COc1ccc2occ(C(=O)O)c(=O)c2c1 [compound 11]
IC50 (PBMC; Homo sapiens, PBMC): > 50 µM
IC50 (HCT-116; Homo sapiens): > 50 µM
IC50 (K562; Homo sapiens): > 50 µM
IC50 (MCF-7; Homo sapiens, MCF7, 72 h): > 50 µM
IC50 (HepG2; Homo sapiens): > 50 µM
IC50 (B16): > 50 µM
IC50 (L-02; L02, 72 h): > 50 µM
